Experimental data as given in patent US20210386367A1, “DEVICES AND SYSTEMS FOR GASTROINTESTINAL MICROBIOME DETECTION AND MANIPULATION” (Progenity, Inc., priority 2018, published 2021).
≈ marks a conversion by molar mass, not a printed value. Entries after “also recorded” stand apart in the source; their conditions may differ. Where two headings read alike, the source gives them in different places.

How the values were obtained:
Type in all cases: cell-based
Enterococcus faecalis = test: Broth microdilution MIC, 50 clinical isolates
Experimental: (§1) Minimal inhibitory concentration (MIC) values were determined by broth microdilution or agar dilution in accordance with guidelines from the Clinical and Laboratory Standards Institute (CLSI; (1) “Methods for Dilution Antimicrobial Susceptibility Tests for Bacteria That Grow Aerobically; Approved Standard; 11th ed.” CLSI standard M07-A11, 2018; (2) “Performance Standards for Antimicrobial Susceptibility Testing; Twenty-Eighth Informational Supplement,” CLSI document M100-S28, 2018; and (3) “Methods for Antimicrobial Susceptibility Testing of Anaerobic Bacteria; Approved Standard—Eighth Edition,” CLSI document M11-A8, 2012).
(§2) Tested aerobically by broth microdilution: • Escherichia coli, n=50 • Klebsiella spp., n=50 • Pseudomonas aeruginosa, n=50 • Streptococcus spp., n=50 • Staphylococcus aureus, n=50 • Enterococcus faecalis, n=50 • Enterobacter aerogenes, n=50 • Proteus mirabilis, n=50
(§3) Broth microdilution testing of aerobic bacteria was conducted in cation-adjusted Mueller Hinton broth (MHBII). For testing streptococci, lysed horse blood (LHB) was added to MHBII broth at a final concentration of 3%. Where LHB was used, it was added after filtering.
(§4) Broth microdilution susceptibility testing in 96-well microplates was conducted in accordance with CLSI methods (1) and (2). Automated liquid handlers were used to conduct serial dilutions and liquid transfers, including the Multidrop 384 (Labsystems, Helsinki, Finland), Biomek 2000, and the Biomek FX (Beckman Coulter, Fullerton, Calif.). All wells in columns 2 through 12 of a standard 96-well microdilution plate (Costar 3795) were filled with 150 μL of the appropriate diluent. Then, 300 μL of the test agents were added to the wells of column 1 of the plates at 100× the highest final concentration to be tested. Serial two-fold dilutions were made across the rows through column 11 using the Biomek 2000. The wells of column 12 contained no drug and served as the growth control wells. This plate served as the “mother plate” from which MIC assay plates or “daughter plates” were made.
(§5) The daughter plates were loaded with 190 μL per well of the appropriate medium using the Multidrop 384. The daughter plates were created using the Biomek FX which transferred 2 μL of drug solution from each well of a mother plate to each corresponding well of the daughter plate in a single step. A standardized inoculum of each test organism was prepared per CLSI methods (1) to equal a 0.5 McFarland standard, followed by a dilution of 1:20 for aerobes and 1:10 for anaerobes. The plates were then inoculated with 10 μL of the diluted inoculum using the Biomek 2000 from low to high drug concentration, resulting in a final concentration of approximately 5×10^5 CFU/mL per well. An un-inoculated plate was incubated in parallel for each medium for the purpose of assessing solubility of the drug in the test media.
(§6) Inoculated plates were stacked 3 or 4 high, covered with a sterile lid on the top plate, placed into boxes with CO2 planchets (streptococci) or plastic bags (all other isolates). Plates were incubated at 35° C. for 16-24 hr in ambient air for aerobes or for 42-48 hr in the anaerobic environment of the Bactron II anaerobe chamber (Sheldon Manufacturing Co.; Cornelius, Oreg.). Following incubation, the microplates were removed from the incubator and viewed from the bottom using a plate viewer. The MIC values were read and recorded as the lowest concentration of drug that inhibited visible growth of the organism as per CLSI methods (1) and (2).

[1] = system: Staphylococcus aureus clinical isolates; test: MIC distribution against clinical isolates; details: 50 S. aureus isolates
Text: (§7) As used herein, “minimum inhibitory concentration” or “MIC” refers to the lowest concentration of an antimicrobial agent, for example, an antimicrobial agent as described herein, required to inhibit the growth of an organism.
(§8) Many susceptibility testing methods are known in the art and can be used as described herein (see, e.g., Jorgensen and Ferraro (2009) Clinical Infectious Diseases 49:1749-1755; and Maurer et al. (2017) Infectious Disease Reports 9:6839; the entire contents of each of the foregoing are incorporated herein by reference). For example, antimicrobial susceptibility can be determined using conventional culture based methods such as the broth or agar dilution test. In these dilution tests, the bacterial isolate of interest is inoculated onto different media that include serial dilutions of an antimicrobial agent, and incubated under appropriate conditions (e.g., overnight at 37° C.) to allow for growth to occur. Following the incubation period, the media is examined to determine bacterial growth. The lowest concentration of antibiotic that prevents growth represents the minimal inhibitory concentration (MIC). Broth dilution tests can be miniaturized and mechanized allowing for reproducibility and high throughput.

[2] = system: Enterococcus faecalis clinical isolates; test: MIC distribution against clinical isolates; details: 50 E. faecalis isolates
Text: as §7, §8

Streptococcus agalactiae = test: Broth microdilution MIC, 20 clinical isolates; details: for % S: MXF by FDA breakpoints; for Mode: modal MIC
Experimental: as §1, §2, §3, §4, §5, §6

[3] = system: Viridans group Streptococcus; test: Broth microdilution MIC, 15 clinical isolates; details: for Mode: modal MIC
Experimental: as §1, §2, §3, §4, §5, §6

Streptococcus spp. = test: Broth microdilution MIC, 54 clinical isolates; details: for Mode: modal MIC
Experimental: as §1, §2, §3, §4, §5, §6

[4] = 20 Streptococcus agalactiae clinical isolates
[5] = 15 Viridans group Streptococci clinical isolates
[6] = 15 Viridans group Streptococci clinical isolates, MXF by FDA breakpoints
[7] = 54 Streptococcus spp. clinical isolates
[8] = 54 Streptococcus spp. clinical isolates, MXF by FDA breakpoints

Molecule: C[C@@H](O)[C@H]1C(=O)N2C(C(=O)O)=C(S[C@@H]3CN[C@H](C(=O)N(C)C)C3)[C@H](C)[C@H]12 [meropenem]
- Mode (Enterococcus faecalis): 4 µg/mL
- MIC50 (Enterococcus faecalis; Enterococcus faecalis, read-out: MIC50): 4 µg/mL (≈ 10.4 µM)
- MIC90 (Enterococcus faecalis; Enterococcus faecalis, read-out: MIC90): 8 µg/mL (≈ 20.9 µM)
- Cumulative percentage of isolates inhibited at MIC ([1]; MIC 0.06 μg/mL): 12.0%
- Number of test isolates at MIC ([1]; MIC 0.06 μg/mL): 6
- Cumulative percentage of isolates inhibited at MIC ([1]; MIC 0.5 μg/mL): 46.0%
- Number of test isolates at MIC ([1]; MIC 0.5 μg/mL): 1
- Cumulative percentage of isolates inhibited at MIC ([1]; MIC 1 μg/mL): 52.0%
- Number of test isolates at MIC ([1]; MIC 1 μg/mL): 3
- Cumulative percentage of isolates inhibited at MIC ([1]; MIC 2 μg/mL): 56.0%
- Number of test isolates at MIC ([1]; MIC 2 μg/mL): 2
- Cumulative percentage of isolates inhibited at MIC ([1]; MIC 4 μg/mL): 78.0%
- Number of test isolates at MIC ([1]; MIC 4 μg/mL): 11
- Cumulative percentage of isolates inhibited at MIC ([1]; MIC 8 μg/mL): 94.0%
- Number of test isolates at MIC ([1]; MIC 8 μg/mL): 8
- Cumulative percentage of isolates inhibited at MIC ([1]; MIC 16 μg/mL): 96.0%
- Number of test isolates at MIC ([1]; MIC 16 μg/mL): 1
- Cumulative percentage of isolates inhibited at MIC ([1]; MIC >16 μg/mL): 100.0%
- Number of test isolates at MIC ([1]; MIC >16 μg/mL): 2
- Cumulative percentage of isolates inhibited at MIC ([2]; MIC 0.5 μg/mL): 2.0%
- Number of test isolates at MIC ([2]; MIC 0.5 μg/mL): 1
- Cumulative percentage of isolates inhibited at MIC ([2]; MIC 1 μg/mL): 8.0%
- Number of test isolates at MIC ([2]; MIC 1 μg/mL): 3
- Cumulative percentage of isolates inhibited at MIC ([2]; MIC 2 μg/mL): 24.0%
- Number of test isolates at MIC ([2]; MIC 2 μg/mL): 8
- Cumulative percentage of isolates inhibited at MIC ([2]; MIC 4 μg/mL): 72.0%
- Number of test isolates at MIC ([2]; MIC 4 μg/mL): 24
- Cumulative percentage of isolates inhibited at MIC ([2]; MIC 8 μg/mL): 96.0%
- Number of test isolates at MIC ([2]; MIC 8 μg/mL): 12
- Cumulative percentage of isolates inhibited at MIC ([2]; MIC 16 μg/mL): 98.0%
- Number of test isolates at MIC ([2]; MIC 16 μg/mL): 1
- Cumulative percentage of isolates inhibited at MIC ([2]; MIC >16 μg/mL): 100.0%
- Number of test isolates at MIC ([2]; MIC >16 μg/mL): 1
- MIC50 (Streptococcus agalactiae; [4]): 0.03 µg/mL (≈ 0.0782 µM)
- MIC90 (Streptococcus agalactiae; [4]): 0.03 µg/mL (≈ 0.0782 µM)
- MIC range (Streptococcus agalactiae; [4]): 0.015 to 0.06 µg/mL
- % S (Streptococcus agalactiae; [4]): 100%
- MIC50 (Streptococcus agalactiae; Streptococcus agalactiae, read-out: MIC50): 0.03 µg/mL (≈ 0.0782 µM)
- MIC90 (Streptococcus agalactiae; Streptococcus agalactiae, read-out: MIC90): 0.03 µg/mL (≈ 0.0782 µM)
- Mode (Streptococcus agalactiae; [4]): 0.03 µg/mL
- MIC50 [3, 5]: 0.015 µg/mL (≈ 0.0391 µM)
- MIC90 [3, 5]: 0.5 µg/mL (≈ 1.3 µM)
- MIC range [3, 5]: 0.004 to 0.5 µg/mL
- % S [3, 6]: 100%
- MIC50 ([3]; Streptococcus, read-out: MIC50): 0.015 µg/mL (≈ 0.0391 µM)
- MIC90 ([3]; Streptococcus, read-out: MIC90): 0.5 µg/mL (≈ 1.3 µM)
- Mode [3, 5]: 0.015 µg/mL
- isolates susceptible (Streptococcus spp.): All
- relative activity among drugs tested (Streptococcus spp.): most active drug evaluated; also recorded: most active agent
- MIC50 (Streptococcus spp.; [7]): 0.015 µg/mL (≈ 0.0391 µM)
- MIC90 (Streptococcus spp.; [7]): 0.03 µg/mL (≈ 0.0782 µM)
- MIC range (Streptococcus spp.; [7]): ≤0.002 to 0.5 µg/mL
- % S (Streptococcus spp.; [8]): 100%
- MIC50 (Streptococcus spp.; Streptococcus, read-out: MIC50): 0.015 µg/mL (≈ 0.0391 µM)
- MIC90 (Streptococcus spp.; Streptococcus, read-out: MIC90): 0.03 µg/mL (≈ 0.0782 µM)
- Mode (Streptococcus spp.; [7]): 0.03 µg/mL

Molecule: Penicillin
- MIC50 (Streptococcus agalactiae; [4]): 0.03 µg/mL
- MIC90 (Streptococcus agalactiae; [4]): 0.03 µg/mL
- MIC range (Streptococcus agalactiae; [4]): 0.015 to 0.06 µg/mL
- % S (Streptococcus agalactiae; [4]): 100%
- Mode (Streptococcus agalactiae; [4]): 0.03 µg/mL
- MIC50 [3, 5]: 0.03 µg/mL
- MIC90 [3, 5]: 1 µg/mL
- MIC range [3, 5]: 0.008 to 1 µg/mL
- % I [3, 6]: 40% ^
- % S [3, 6]: 60%
- Mode [3, 5]: 0.015 µg/mL
- MIC50 (Streptococcus spp.; [7]): 0.03 µg/mL
- MIC90 (Streptococcus spp.; [7]): 0.25 µg/mL
- MIC range (Streptococcus spp.; [7]): ≤0.004-1^ μg/mL
- % I (Streptococcus spp.; [8]): 11% ^
- % S (Streptococcus spp.; [8]): 89%
- Mode (Streptococcus spp.; [7]): 0.03 µg/mL
